# Data from US20260183295A1, “METHODS AND COMPOSITIONS FOR TREATING CANCER” (Onconova Therapeutics, Inc., priority 2022, published 2026).
# Tests used:
# [1] = system: MDA-MB-231 cells; test: Annexin V/PI staining followed by FACS, 24 hours; format: cell-based
# Experimental: To determine the effect of the different treatment conditions on cell death, Annexin V/PI staining was performed.
# [2] = biological target: T1, PTX3 (Homo sapiens, UniProt P26022); test: CETSA-MS, MDA-MB-231 intact cells; format: cell-based; settings: 2 μM and 20 μM
# T1 construct: endogenous in cells; host or cells: MDA-MB-231
# Experimental: (§1) TNBC MDA-MB-231 cells were grown at 37° C. in 5% CO2 and suspended in warm media and split into 4 equal volumes. […] Cells were incubated and then pelleted. Following pelleting, the cells were washed, resuspended, and heated in a thermal gradient. Following heating, the samples were flash frozen and lysed in lysis buffer, agitated by vortex, and sonicated prior to centrifugation. The supernatant was collected and denaturation buffer added. Cold acetone was then added to the cell samples, and protein collected by centrifugation. Pellets were then washed twice with cold acetone and the washed pellets prior to labeling.
# (§2) The intact cell protein samples and lysate protein samples were then digested and labeled for mass spectrometry analysis according to the manufacturer's recommended protocols. Digested and labeled protein samples were analyzed by mass spectrometry proteomic analysis and the resulting protein targets were analyzed and plotted.
# [3] = biological target: T2, AGRN (Homo sapiens, UniProt O00468); test: CETSA-MS, MDA-MB-231 intact cells; format: cell-based; settings: 2 μM and 20 μM
# T2 construct: endogenous in cells; host or cells: MDA-MB-231
# Experimental: as §1, §2
# [4] = biological target: T3, SMU1 (Homo sapiens, UniProt Q2TAY7); test: CETSA-MS, MDA-MB-231 intact cells; format: cell-based; settings: 2 μM and 20 μM
# T3 construct: endogenous in cells; host or cells: MDA-MB-231
# Experimental: as §1, §2
# [5] = biological target: T4, YES1 (Homo sapiens, UniProt P07947); test: CETSA-MS, MDA-MB-231 intact cells; format: cell-based; settings: 2 μM and 20 μM
# T4 construct: endogenous in cells; host or cells: MDA-MB-231
# Experimental: as §1, §2
# [6] = biological target: T5, CLPP (Homo sapiens, UniProt Q16740); test: CETSA-MS, MDA-MB-231 intact cells; format: cell-based; settings: 2 μM and 20 μM
# T5 construct: endogenous in cells; host or cells: MDA-MB-231
# Experimental: as §1, §2
# [7] = biological target: T6, PHF8 (Homo sapiens, UniProt Q9UPP1); test: CETSA-MS, MDA-MB-231 intact cells; format: cell-based; settings: 2 μM and 20 μM
# T6 construct: endogenous in cells; host or cells: MDA-MB-231
# Experimental: as §1, §2
# [8] = biological target: T7, FGFRL1 (Homo sapiens, UniProt Q8N441); test: CETSA-MS, MDA-MB-231 intact cells; format: cell-based; settings: 2 μM and 20 μM
# T7 construct: 148 targets unique to Compound 1 in MDA-MB-231 intact cells; endogenous in cells; host or cells: MDA-MB-231
# Experimental: as §1, §2
# [9] = biological target: T8, AP2M1 (Homo sapiens, UniProt Q96CW1); test: CETSA-MS, MDA-MB-231 intact cells; format: cell-based; settings: 2 μM and 20 μM
# T8 construct: endogenous in cells; host or cells: MDA-MB-231
# Experimental: as §1, §2
# [10] = biological target: T9, CDK12 (Homo sapiens, UniProt Q9NYV4); test: CETSA-MS, MDA-MB-231 intact cells; format: cell-based; settings: 2 μM and 20 μM
# T9 construct: endogenous in cells; host or cells: MDA-MB-231
# Experimental: as §1, §2
# [11] = biological target: T10, DDX21 (Homo sapiens, UniProt Q9NR30); test: CETSA-MS, MDA-MB-231 intact cells; format: cell-based; settings: 2 μM and 20 μM
# T10 construct: 148 targets unique to Compound 1 in MDA-MB-231 intact cells; endogenous in cells; host or cells: MDA-MB-231
# Experimental: as §1, §2
# [12] = biological target: T11, ESYT1 (Homo sapiens, UniProt Q9BSJ8); test: CETSA-MS, MDA-MB-231 intact cells; format: cell-based; settings: 2 μM and 20 μM
# T11 construct: 148 targets unique to Compound 1 in MDA-MB-231 intact cells; endogenous in cells; host or cells: MDA-MB-231
# Experimental: as §1, §2
# [13] = biological target: T12, CELF1 (Homo sapiens, UniProt Q92879); test: CETSA-MS, MDA-MB-231 intact cells; format: cell-based; settings: 2 μM and 20 μM
# T12 construct: endogenous in cells; host or cells: MDA-MB-231
# Experimental: as §1, §2
# [14] = biological target: T13, AVEN (Homo sapiens, UniProt Q9NQS1); test: CETSA-MS, MDA-MB-231 intact cells; format: cell-based; settings: 2 μM and 20 μM
# T13 construct: endogenous in cells; host or cells: MDA-MB-231
# Experimental: as §1, §2
# [15] = biological target: T14, ZNF608 (Homo sapiens, UniProt Q9ULD9); test: CETSA-MS, MDA-MB-231 intact cells; format: cell-based; settings: 2 μM and 20 μM
# T14 construct: endogenous in cells; host or cells: MDA-MB-231
# Experimental: as §1, §2
# [16] = biological target: T15, DBNDD2 (Homo sapiens, UniProt Q9BQY9); test: CETSA-MS, MDA-MB-231 intact cells; format: cell-based; settings: 2 μM and 20 μM
# T15 construct: 148 targets unique to Compound 1 in MDA-MB-231 intact cells; endogenous in cells; host or cells: MDA-MB-231
# Experimental: as §1, §2
# [17] = biological target: T16, SIK2 (Homo sapiens, UniProt Q9H0K1); test: CETSA-MS, MDA-MB-231 intact cells; format: cell-based; settings: 2 μM and 20 μM
# T16 construct: endogenous in cells; host or cells: MDA-MB-231
# Experimental: as §1, §2
# [18] = biological target: T17, APP (Homo sapiens, UniProt P05067); test: CETSA-MS, MDA-MB-231 intact cells; format: cell-based; settings: 2 μM and 20 μM
# T17 construct: endogenous in cells; host or cells: MDA-MB-231
# Experimental: as §1, §2
# [19] = biological target: T18, NRP1 (Homo sapiens, UniProt O14786); test: CETSA-MS, MDA-MB-231 intact cells; format: cell-based; settings: 2 μM and 20 μM
# T18 construct: endogenous in cells; host or cells: MDA-MB-231
# Experimental: as §1, §2
# [20] = biological target: T19, MATR3 (Homo sapiens, UniProt P43243); test: CETSA-MS, MDA-MB-231 intact cells; format: cell-based; settings: 2 μM and 20 μM
# T19 construct: endogenous in cells; host or cells: MDA-MB-231
# Experimental: as §1, §2
# [21] = biological target: T20, LRPPRC (Homo sapiens, UniProt P42704); test: CETSA-MS, MDA-MB-231 intact cells; format: cell-based; settings: 2 μM and 20 μM
# T20 construct: endogenous in cells; host or cells: MDA-MB-231
# Experimental: as §1, §2
# [22] = biological target: T21, PRPF4B (Homo sapiens, UniProt Q13523); test: CETSA-MS, MDA-MB-231 intact cells; format: cell-based; settings: 2 μM and 20 μM
# T21 construct: endogenous in cells; host or cells: MDA-MB-231
# Experimental: as §1, §2
# [23] = biological target: T22, RIPK 1 (Homo sapiens, UniProt Q13546); test: CETSA-MS, MDA-MB-231 intact cells; format: cell-based; settings: 2 μM and 20 μM
# T22 construct: endogenous in cells; host or cells: MDA-MB-231
# Experimental: as §1, §2
# [24] = biological target: T23, GALNT7 (Homo sapiens, UniProt Q86SF2); test: CETSA-MS, MDA-MB-231 intact cells; format: cell-based; settings: 2 μM and 20 μM
# T23 construct: 148 targets unique to Compound 1 in MDA-MB-231 intact cells; endogenous in cells; host or cells: MDA-MB-231
# Experimental: as §1, §2
# [25] = biological target: T24, MPHOSPH8 (Homo sapiens, UniProt Q99549); test: CETSA-MS, MDA-MB-231 intact cells; format: cell-based; settings: 2 μM and 20 μM
# T24 construct: endogenous in cells; host or cells: MDA-MB-231
# Experimental: as §1, §2
# [26] = biological target: T25, GSKIP (Homo sapiens, UniProt Q9P0R6); test: CETSA-MS, MDA-MB-231 intact cells; format: cell-based; settings: 2 μM and 20 μM
# T25 construct: 148 targets unique to Compound 1 in MDA-MB-231 intact cells; endogenous in cells; host or cells: MDA-MB-231
# Experimental: as §1, §2
# [27] = biological target: T26, CPD (Homo sapiens, UniProt O75976); test: CETSA-MS, MDA-MB-231 intact cells; format: cell-based; settings: 2 μM and 20 μM
# T26 construct: 148 targets unique to Compound 1 in MDA-MB-231 intact cells; endogenous in cells; host or cells: MDA-MB-231
# Experimental: as §1, §2
# [28] = biological target: T27, SHCBP1 (Homo sapiens, UniProt Q8NEM2); test: CETSA-MS, MDA-MB-231 intact cells; format: cell-based; settings: 2 μM and 20 μM
# T27 construct: endogenous in cells; host or cells: MDA-MB-231
# Experimental: as §1, §2
# [29] = biological target: T28, ZFR (Homo sapiens, UniProt Q96KR1); test: CETSA-MS, MDA-MB-231 intact cells; format: cell-based; settings: 2 μM and 20 μM
# T28 construct: endogenous in cells; host or cells: MDA-MB-231
# Experimental: as §1, §2
# [30] = biological target: T29, EIF4G1 (Homo sapiens, UniProt Q04637); test: CETSA-MS, MDA-MB-231 intact cells; format: cell-based; settings: 2 μM and 20 μM
# T29 construct: endogenous in cells; host or cells: MDA-MB-231
# Experimental: as §1, §2
# [31] = system: CXCL10; test: qPCR of T-cell recruiting chemokine mRNA, PyMT cells; format: cell-based, mouse
# [32] = system: MDA-MB-231 cells; test: MTT assay, 24 hours; format: cell-based
# [33] = system: pRb; test: Western blot, MDA-MB-231 cells, 24 hours; format: cell-based; settings: 2.5, 5, 10 μM, versus Comparator 1, 2 and 4
# [34] = system: Hs578T spheroids; test: CellTiter Glo 3D spheroid viability; format: cell-based; settings: 48 hours; Compound 1, Comparator 1, Comparator 2 5 μM; Comparator 4 10 μM
# Experimental: Viability of the spheroids was assessed using CellTiter Glo 3D.
# T23 sequence (Q86SF2 whole entry): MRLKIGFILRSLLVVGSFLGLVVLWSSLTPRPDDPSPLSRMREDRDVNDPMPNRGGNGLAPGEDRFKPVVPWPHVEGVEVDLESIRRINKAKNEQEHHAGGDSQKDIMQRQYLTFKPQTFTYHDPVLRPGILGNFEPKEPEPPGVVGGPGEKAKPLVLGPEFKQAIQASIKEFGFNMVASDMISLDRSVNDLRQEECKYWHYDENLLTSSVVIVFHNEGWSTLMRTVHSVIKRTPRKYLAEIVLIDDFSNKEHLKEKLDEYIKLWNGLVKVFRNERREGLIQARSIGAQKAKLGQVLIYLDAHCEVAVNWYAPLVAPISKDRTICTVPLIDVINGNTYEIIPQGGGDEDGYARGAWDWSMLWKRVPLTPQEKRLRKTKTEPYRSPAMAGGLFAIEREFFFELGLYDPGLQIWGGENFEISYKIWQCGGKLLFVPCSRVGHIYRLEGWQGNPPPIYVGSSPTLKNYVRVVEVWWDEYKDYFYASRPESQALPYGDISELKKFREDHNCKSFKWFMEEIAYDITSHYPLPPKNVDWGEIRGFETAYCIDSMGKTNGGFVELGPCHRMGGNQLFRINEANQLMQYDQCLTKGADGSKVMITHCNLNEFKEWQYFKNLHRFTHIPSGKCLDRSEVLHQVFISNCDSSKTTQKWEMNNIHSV
# T5 sequence (Q16740 57-277): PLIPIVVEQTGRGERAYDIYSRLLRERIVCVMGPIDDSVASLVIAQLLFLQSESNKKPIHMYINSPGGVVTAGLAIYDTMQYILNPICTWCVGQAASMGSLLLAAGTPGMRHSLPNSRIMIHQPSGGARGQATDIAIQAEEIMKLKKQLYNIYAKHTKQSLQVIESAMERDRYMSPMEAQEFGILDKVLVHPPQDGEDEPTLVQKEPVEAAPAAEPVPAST
# T12 sequence (Q92879 whole entry): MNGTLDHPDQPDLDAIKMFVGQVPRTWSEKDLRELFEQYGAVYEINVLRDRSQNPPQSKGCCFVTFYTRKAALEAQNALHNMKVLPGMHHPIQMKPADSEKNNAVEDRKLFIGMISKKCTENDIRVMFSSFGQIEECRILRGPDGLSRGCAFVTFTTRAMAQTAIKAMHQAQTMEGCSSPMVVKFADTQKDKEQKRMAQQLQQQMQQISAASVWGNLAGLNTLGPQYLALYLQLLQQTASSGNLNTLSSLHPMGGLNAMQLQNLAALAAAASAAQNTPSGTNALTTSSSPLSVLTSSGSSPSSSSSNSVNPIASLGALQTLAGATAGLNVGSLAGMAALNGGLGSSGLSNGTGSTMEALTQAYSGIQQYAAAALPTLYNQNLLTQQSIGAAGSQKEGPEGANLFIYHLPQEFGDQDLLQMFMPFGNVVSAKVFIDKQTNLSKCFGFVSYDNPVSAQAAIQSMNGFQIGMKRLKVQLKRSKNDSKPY
# T29 sequence (Q04637 whole entry): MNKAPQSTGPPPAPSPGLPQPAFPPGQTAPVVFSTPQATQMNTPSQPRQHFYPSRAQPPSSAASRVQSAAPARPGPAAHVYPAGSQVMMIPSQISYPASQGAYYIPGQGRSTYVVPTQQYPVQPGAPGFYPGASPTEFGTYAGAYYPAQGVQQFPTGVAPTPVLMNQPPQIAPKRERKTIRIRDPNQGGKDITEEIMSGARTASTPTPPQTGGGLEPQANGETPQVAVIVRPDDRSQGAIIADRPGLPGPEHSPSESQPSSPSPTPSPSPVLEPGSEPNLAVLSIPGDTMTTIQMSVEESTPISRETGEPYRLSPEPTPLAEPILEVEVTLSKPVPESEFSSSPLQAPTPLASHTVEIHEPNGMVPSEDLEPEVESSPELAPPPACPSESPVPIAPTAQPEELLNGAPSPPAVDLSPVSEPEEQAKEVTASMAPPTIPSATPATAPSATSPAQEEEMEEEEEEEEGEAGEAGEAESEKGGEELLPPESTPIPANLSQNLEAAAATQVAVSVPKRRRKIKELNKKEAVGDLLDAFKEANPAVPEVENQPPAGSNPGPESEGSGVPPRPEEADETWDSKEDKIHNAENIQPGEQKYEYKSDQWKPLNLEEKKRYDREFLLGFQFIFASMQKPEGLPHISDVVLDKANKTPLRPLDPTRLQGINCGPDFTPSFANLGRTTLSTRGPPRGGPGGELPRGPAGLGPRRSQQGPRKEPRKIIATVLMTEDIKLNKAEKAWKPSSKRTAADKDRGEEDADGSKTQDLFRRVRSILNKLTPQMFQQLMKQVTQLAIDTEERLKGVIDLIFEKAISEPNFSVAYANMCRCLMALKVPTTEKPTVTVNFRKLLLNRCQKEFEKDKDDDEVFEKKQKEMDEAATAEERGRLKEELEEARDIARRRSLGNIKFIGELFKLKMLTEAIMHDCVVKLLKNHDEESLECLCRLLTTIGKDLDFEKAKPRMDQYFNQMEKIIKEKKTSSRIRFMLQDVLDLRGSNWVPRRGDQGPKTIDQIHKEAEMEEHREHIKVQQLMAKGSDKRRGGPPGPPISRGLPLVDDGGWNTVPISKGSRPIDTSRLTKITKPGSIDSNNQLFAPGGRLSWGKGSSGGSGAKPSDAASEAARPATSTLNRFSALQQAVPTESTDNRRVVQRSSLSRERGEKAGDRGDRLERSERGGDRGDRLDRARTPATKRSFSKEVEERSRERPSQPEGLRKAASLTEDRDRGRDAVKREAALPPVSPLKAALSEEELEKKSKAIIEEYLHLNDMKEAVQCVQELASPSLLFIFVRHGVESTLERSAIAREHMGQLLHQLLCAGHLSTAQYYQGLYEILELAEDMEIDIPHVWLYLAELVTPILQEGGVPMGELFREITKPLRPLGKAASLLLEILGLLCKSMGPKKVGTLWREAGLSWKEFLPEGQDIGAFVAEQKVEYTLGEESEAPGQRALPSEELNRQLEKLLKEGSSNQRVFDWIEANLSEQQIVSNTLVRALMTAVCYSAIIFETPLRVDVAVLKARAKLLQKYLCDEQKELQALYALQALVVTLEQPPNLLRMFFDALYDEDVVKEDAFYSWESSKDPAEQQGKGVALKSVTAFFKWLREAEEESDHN
# T16 sequence (Q9H0K1 whole entry): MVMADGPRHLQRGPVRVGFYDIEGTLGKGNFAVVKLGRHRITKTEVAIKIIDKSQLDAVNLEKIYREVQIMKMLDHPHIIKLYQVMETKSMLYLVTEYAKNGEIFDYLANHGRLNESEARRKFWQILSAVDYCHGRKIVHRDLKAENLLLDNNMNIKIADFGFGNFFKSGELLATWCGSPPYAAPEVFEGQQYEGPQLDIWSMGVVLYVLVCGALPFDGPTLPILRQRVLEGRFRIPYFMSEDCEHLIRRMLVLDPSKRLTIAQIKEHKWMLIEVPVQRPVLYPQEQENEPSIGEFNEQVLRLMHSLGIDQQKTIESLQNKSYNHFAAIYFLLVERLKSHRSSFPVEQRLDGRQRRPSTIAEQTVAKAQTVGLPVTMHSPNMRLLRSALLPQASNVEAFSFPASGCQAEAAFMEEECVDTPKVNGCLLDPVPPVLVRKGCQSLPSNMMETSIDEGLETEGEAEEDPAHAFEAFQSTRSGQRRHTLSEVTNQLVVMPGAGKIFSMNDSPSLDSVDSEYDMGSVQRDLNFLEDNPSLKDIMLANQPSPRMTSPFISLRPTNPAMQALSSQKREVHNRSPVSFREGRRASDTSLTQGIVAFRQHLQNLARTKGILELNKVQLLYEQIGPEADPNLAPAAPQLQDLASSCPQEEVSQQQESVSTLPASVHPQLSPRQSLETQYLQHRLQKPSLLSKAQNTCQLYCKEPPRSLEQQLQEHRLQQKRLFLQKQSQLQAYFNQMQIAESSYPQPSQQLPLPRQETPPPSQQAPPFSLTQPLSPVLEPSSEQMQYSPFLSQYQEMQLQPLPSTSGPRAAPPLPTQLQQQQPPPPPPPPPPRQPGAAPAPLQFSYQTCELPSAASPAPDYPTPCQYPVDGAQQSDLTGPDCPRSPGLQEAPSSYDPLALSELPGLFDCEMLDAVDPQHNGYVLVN
# T22 sequence (Q13546 whole entry): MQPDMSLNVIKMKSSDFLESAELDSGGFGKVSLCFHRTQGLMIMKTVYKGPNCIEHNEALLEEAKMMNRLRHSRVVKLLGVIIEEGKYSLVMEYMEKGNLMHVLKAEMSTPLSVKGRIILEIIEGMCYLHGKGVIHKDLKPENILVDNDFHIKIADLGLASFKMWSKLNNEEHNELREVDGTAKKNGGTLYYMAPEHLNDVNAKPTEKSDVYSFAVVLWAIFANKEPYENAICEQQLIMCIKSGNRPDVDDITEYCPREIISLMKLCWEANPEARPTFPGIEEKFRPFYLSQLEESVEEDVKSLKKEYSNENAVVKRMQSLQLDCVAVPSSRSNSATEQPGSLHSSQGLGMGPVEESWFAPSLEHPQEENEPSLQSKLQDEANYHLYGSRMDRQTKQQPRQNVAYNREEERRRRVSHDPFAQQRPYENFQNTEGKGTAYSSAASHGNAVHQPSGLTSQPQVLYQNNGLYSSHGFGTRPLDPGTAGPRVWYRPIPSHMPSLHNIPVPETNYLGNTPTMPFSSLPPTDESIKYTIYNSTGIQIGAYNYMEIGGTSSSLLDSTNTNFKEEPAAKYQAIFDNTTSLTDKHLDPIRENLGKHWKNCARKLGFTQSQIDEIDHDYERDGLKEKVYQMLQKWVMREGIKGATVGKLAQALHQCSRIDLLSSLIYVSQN
# T1 sequence (P26022 18-381): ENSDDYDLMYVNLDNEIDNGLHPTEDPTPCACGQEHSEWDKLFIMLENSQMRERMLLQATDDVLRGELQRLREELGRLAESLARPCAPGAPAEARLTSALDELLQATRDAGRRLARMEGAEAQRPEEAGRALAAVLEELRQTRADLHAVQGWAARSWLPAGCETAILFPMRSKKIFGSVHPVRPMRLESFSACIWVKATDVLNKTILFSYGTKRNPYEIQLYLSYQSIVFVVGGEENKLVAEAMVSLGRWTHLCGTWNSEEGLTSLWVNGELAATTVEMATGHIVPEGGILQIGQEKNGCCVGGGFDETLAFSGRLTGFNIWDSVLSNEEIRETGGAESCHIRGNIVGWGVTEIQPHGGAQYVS
smiles,measurement,setting,value
"CN1CCN(c2ccc(Nc3ncc4cc(C#N)c(=O)n(C5CCCC5)c4n3)cc2)CC1 [Compound 1, 8-cyclopentyl-2-((4-(4-methylpiperazin-1-yl)phenyl)amino)-7-oxo-7,8-dihydropyrido[2,3-d]pyrimidine-6-carbonitrile]",cell death (Annexin V/PI),"[1]; Compound 1, Comparator 1, 2 5 μM, Comparator 4 10 μM",~40%
same,"effect of zVAD-FMK on cell death, Annexin V/PI staining",[1]; zVAD-FMK 20 μM (FIG. 24),unaffected by zVAD-FMK treatment
same,Group (CETSA-MS thermal shift),[2],Stabilization
same,Group (CETSA-MS thermal shift),[3],Stabilization
same,Group (CETSA-MS thermal shift),[4],Stabilization
same,Group (CETSA-MS thermal shift),[5],Destabilization
same,Group (CETSA-MS thermal shift),[6],Stabilization
same,Group (CETSA-MS thermal shift),[7],Stabilization
same,Group (CETSA-MS thermal shift),[8],Stabilization
same,Group (CETSA-MS thermal shift),[9],Destabilization
same,Group (CETSA-MS thermal shift),[10],Destabilization
same,Group (CETSA-MS thermal shift),[11],Stabilization
same,Group (CETSA-MS thermal shift),[12],Stabilization
same,Group (CETSA-MS thermal shift),[13],Stabilization
same,Group (CETSA-MS thermal shift),[14],Destabilization
same,Group (CETSA-MS thermal shift),[15],Destabilization
same,Group (CETSA-MS thermal shift),[16],Stabilization
same,Group (CETSA-MS thermal shift),[17],Stabilization
same,Group (CETSA-MS thermal shift),[18],Stabilization
same,Group (CETSA-MS thermal shift),[19],Stabilization
same,Group (CETSA-MS thermal shift),[20],Stabilization
same,Group (CETSA-MS thermal shift),[21],Stabilization
same,Group (CETSA-MS thermal shift),[22],Stabilization
same,Group (CETSA-MS thermal shift),[23],Stabilization
same,Group (CETSA-MS thermal shift),[24],Stabilization
same,Group (CETSA-MS thermal shift),[25],Stabilization
same,Group (CETSA-MS thermal shift),[26],Stabilization
same,Group (CETSA-MS thermal shift),[27],Stabilization
same,Group (CETSA-MS thermal shift),[28],Destabilization
same,Group (CETSA-MS thermal shift),[29],Stabilization
same,Group (CETSA-MS thermal shift),[30],Destabilization
same,time of peak CXCL10 mRNA levels,[31],~48 h
same,CXCL10 mRNA levels,"[31]; 24, 48 and 72 hours",large increase
same,cell viability (MTT),"[32]; 2.5 μM, 5 μM and 10 μM, compared to Comparator 1 and Comparator 2",decreases cell viability to a greater extent
same,"effect of zVAD-FMK on cell death, MTT assay",[32]; zVAD-FMK 20 μM (FIG. 25),unaffected by zVAD-FMK treatment
same,pRb levels,[33],decreasing
same,decrease in organoid viability compared to DMSO,[34],~40%
